The record followed here is patent US20250230171A1 (MOMA Therapeutics, Inc., priority 2023, published 2025).

The subject of one test is DLD1 WT cells. Nature of the test: 7-day cell viability assay (CellTiter-Glo), DLD1 parental (WT). The class given is cell-based, human. The following applies: n=2.
Test [1] concerns the target biotinylated Avi-POLθ[2-894] (Homo sapiens (Human), UniProt O75417). Nature of the test: POLθ ATPase assay (ADP-Glo). The following applies: n=2, read-out: Biochemical ATPase ADPGlo IC50.
The subject of another test is DLD1 BRCA2 (−/−) cells. The test is described as follows: 7-day cell viability assay (CellTiter-Glo), DLD1 BRCA2 (−/−). The class given is cell-based, human. The following applies: n=2, read-out: Viability IC50 (uM) DLD1 BRCA2 null. In short, it runs like this: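 7-day growth assay in DLD1 cells with or without BRCA2; seeding densities chosen to keep log-linear growth. Compound: 10 uM top, 3-fold, 9 points. Endpoint: CTG ATP luminescence at RT.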

The mark [2] stands for this setting: Homo sapiens, DLD-1, 168 h, 7-day viability.
The mark [3] stands for this setting: Homo sapiens, DLD-1, 168 h, 7-day CellTiter-Glo.

pIC50: −log10 of the molar value. Read-outs that look alike come from different tables or passages of the source.

Sequence of biotinylated Avi-POLθ[2-894] (O75417 2-894): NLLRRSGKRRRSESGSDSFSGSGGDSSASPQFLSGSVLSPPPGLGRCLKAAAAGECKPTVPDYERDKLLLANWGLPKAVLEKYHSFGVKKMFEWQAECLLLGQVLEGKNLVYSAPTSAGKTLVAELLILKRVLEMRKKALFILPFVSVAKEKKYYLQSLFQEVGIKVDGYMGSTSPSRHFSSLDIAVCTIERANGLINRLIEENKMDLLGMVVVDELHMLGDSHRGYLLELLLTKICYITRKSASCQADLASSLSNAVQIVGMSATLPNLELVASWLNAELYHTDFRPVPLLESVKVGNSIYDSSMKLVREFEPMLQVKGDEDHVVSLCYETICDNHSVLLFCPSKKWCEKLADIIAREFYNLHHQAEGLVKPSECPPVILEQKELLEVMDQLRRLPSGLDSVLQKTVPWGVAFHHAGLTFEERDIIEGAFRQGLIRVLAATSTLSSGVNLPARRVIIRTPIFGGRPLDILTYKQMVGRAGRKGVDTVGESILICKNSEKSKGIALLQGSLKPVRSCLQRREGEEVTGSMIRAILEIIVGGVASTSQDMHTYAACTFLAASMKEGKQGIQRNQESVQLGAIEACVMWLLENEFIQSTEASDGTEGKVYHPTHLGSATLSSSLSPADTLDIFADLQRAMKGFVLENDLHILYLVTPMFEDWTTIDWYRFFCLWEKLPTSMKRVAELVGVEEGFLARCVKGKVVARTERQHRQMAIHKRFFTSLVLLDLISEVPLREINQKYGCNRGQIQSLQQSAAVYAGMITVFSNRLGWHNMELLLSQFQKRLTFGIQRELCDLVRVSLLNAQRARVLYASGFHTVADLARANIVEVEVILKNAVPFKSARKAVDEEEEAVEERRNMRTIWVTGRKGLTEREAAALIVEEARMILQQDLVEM

With `COc1cnc(Cl)cc1-c1cc(C)ncc1C(=O)Nc1nc2c(s1)CN(C(=O)c1ccnc(C)c1)C2` [Example 194], the figures for the IC50 with DLD1 WT cells (setting [2]) and in the test on DLD1 BRCA2 (−/−) cells (setting [2]) were at least 10 µM and 0.001 to 0.1 µM, respectively. Besides, the negative-log IC50 (pIC50) in test [1] was 7.82 to 9.00.
On to `COc1cnc(Cl)cc1-c1cc(C)ncc1C(=O)Nc1nc2c(s1)CN(C(=O)C1CC(OC(F)(F)F)C1)C2` (stereo not drawn) [Example 196], for which the IC50 in the test on DLD1 WT cells (setting [2]) is at least 10 µM; in the test with DLD1 BRCA2 (−/−) cells (setting [2]), 0.001 to 0.1 µM. For the same compound, the pIC50 in test [1] is 7.82 to 9.00.
For `COc1cnc(Cl)cc1-c1cc(C)ncc1C(=O)Nc1nc2c(s1)CN(C(=O)c1ccn(C)n1)C2` [Example 197] the same measures were at least 10 µM, 0.25 to 0.5 µM and 7.82 to 9.00.
For `COc1cnc(Cl)cc1-c1cc(C)ncc1C(=O)Nc1nc2c(s1)CN(C(=O)c1ccc(C)cn1)C2` [Example 199], the IC50 in the test with DLD1 WT cells (setting [2]) lay within 5 to 10 µM; in the test with DLD1 BRCA2 (−/−) cells (setting [2]), 0.1 to 0.25 µM. Further, the pIC50 in test [1] was 7.82 to 9.00.
For `COc1cnc(Cl)cc1-c1cc(C)ncc1C(=O)Nc1nc2c(s1)CN(C(=O)[C@@H]1CCCCO1)C2` [Example 216, (S) 2′-chloro-5′-methoxy-6-methyl-N-(5-(tetrahydro-2H-pyran-2-carbonyl)-5,6-dihydro-4H-pyrrolo[3,4-d]thiazol-2-yl)-[4,4′-bipyridine]-3-carboxamide], in that order: at least 10 µM, 0.1 to 0.25 µM and 7.82 to 9.00.
For `COc1ccc(C#N)cc1-c1cc(C)ncc1C(=O)Nc1nc2c(s1)CN(C(=O)C1CC(C(F)F)C1)C2` (stereo not drawn) [Example 244] the same measures were at least 10 µM, 0.5 to 2 µM and 7.82 to 9.00.
For `COc1ccc(C#N)cc1-c1cc(C)ncc1C(=O)Nc1nc2c(s1)CN(S(=O)(=O)NC(C)C)C2` [Example 269], in that order: at least 10 µM, at least 2 µM and 7.82 to 9.00.
In the case of `CCCNS(=O)(=O)N1Cc2nc(NC(=O)c3cnc(C)cc3-c3cc(C#N)ccc3OC)sc2C1` [Example 270], the IC50 was at least 10 µM with DLD1 WT cells (setting [2]) and 0.5 to 2 µM with DLD1 BRCA2 (−/−) cells (setting [2]). Besides, in test [1], the pIC50 is 7.82 to 9.00.
For the compound `COc1ccc(C#N)cc1-c1cc(C)ncc1C(=O)Nc1nc2c(s1)CN(C(=O)c1ccccn1)C2` [Example 276], the IC50 is at least 10 µM with DLD1 WT cells (setting [2]) and at least 2 µM in the test on DLD1 BRCA2 (−/−) cells (setting [2]). The pIC50 in test [1] was 7.82 to 9.00.
In the case of `CCNS(=O)(=O)N1Cc2nc(NC(=O)c3cnc(C)cc3-c3cc(C#N)ccc3OC)sc2C1` [Example 299], the IC50 in the test on DLD1 WT cells (setting [2]) is at least 10 µM; with DLD1 BRCA2 (−/−) cells (setting [2]) it was 0.5 to 2 µM. Besides, the pIC50 in test [1] was 7.82 to 9.00.
On to `COc1ccc(C#N)cc1-c1cc(C)ncc1C(=O)Nc1nc2c(s1)CN(C(=O)c1ccc(C)cn1)C2` [Example 304], for which the IC50 with DLD1 WT cells (setting [2]) is at least 10 µM; in the test on DLD1 BRCA2 (−/−) cells (setting [2]) it was 0.1 to 0.25 µM. The pIC50 in test [1] is 7.82 to 9.00.
Regarding `COc1ccc(C#N)cc1-c1cc(C)ncc1C(=O)Nc1nc2c(s1)CN(S(=O)(=O)c1ccccn1)C2` [Example 308], the IC50 in the test with DLD1 WT cells (setting [2]) is at least 10 µM; in the test with DLD1 BRCA2 (−/−) cells (setting [2]), at least 2 µM. Besides, the pIC50 in test [1] was 7.30 to 7.82.
On to `COc1ccccc1-c1cc(C)ncc1C(=O)Nc1nc2c(s1)CN(C(=O)OC(C)(C)C)C2` [Example 314], for which the IC50 was 2 to 5 µM in the test on DLD1 WT cells (setting [2]) and 0.5 to 2 µM with DLD1 BRCA2 (−/−) cells (setting [2]). In test [1], the pIC50 is 6.82 to 7.30.
For the compound `CCn1ncc(Cl)c1C(=O)N1Cc2nc(NC(=O)c3cnc(C)cc3-c3cc(Cl)ncc3OC)sc2C1` [Example 393, 2′-chloro-N-(5-(4-chloro-1-ethyl-1H-pyrazole-5-carbonyl)-5,6-dihydro-4H-pyrrolo[3,4-d]thiazol-2-yl)-5′-methoxy-6-methyl-[4,4′-bipyridine]-3-carboxamide], the figures for the IC50 in the test with DLD1 WT cells (setting [3]) and in the test with DLD1 BRCA2 (−/−) cells (setting [3]) were at least 10 µM and 0.001 to 0.1 µM, respectively. Besides, the pIC50 in test [1] (POLθ ATPase, ADP-Glo) is 7.82 to 9.00.
Consider `COc1cnc(Cl)cc1-c1cc(C)ncc1C(=O)Nc1nc2c(s1)CN(C(=O)c1ccc(OC(F)(F)F)cn1)C2` [Example 394, 2′-chloro-5′-methoxy-6-methyl-N-(5-(5-(trifluoromethoxy)picolinoyl)-5,6-dihydro-4H-pyrrolo[3,4-d]thiazol-2-yl)-[4,4′-bipyridine]-3-carboxamide], for which the IC50 in the test on DLD1 WT cells (setting [2]) was at least 10 µM; with DLD1 BRCA2 (−/−) cells (setting [2]) it was 0.001 to 0.1 µM. For the same compound, the negative-log IC50 (pIC50) in test [1] is 7.82 to 9.00.
On to `COc1cnc(Cl)cc1-c1cc(C)ncc1C(=O)Nc1nc2c(s1)CN(C(=O)c1ccc(OC)c(Cl)n1)C2` [Example 395, 2′-chloro-N-(5-(6-chloro-5-methoxypicolinoyl)-5,6-dihydro-4H-pyrrolo[3,4-d]thiazol-2-yl)-5′-methoxy-6-methyl-[4,4′-bipyridine]-3-carboxamide], for which the figures for the concentration for half-maximal inhibition (IC50) in the test on DLD1 WT cells (setting [3]) and in the test with DLD1 BRCA2 (−/−) cells (setting [3]) were at least 10 µM and 0.001 to 0.1 µM, respectively. Also, the pIC50 in test [1] (POLθ ATPase, ADP-Glo) is 7.82 to 9.00.
As for `COc1cnc(Cl)cc1-c1cc(C)ncc1C(=O)Nc1nc2c(s1)CN(C(=O)c1cc(C(F)F)ccc1F)C2` [Example 398, 2′-chloro-N-(5-(5-(difluoromethyl)-2-fluorobenzoyl)-5,6-dihydro-4H-pyrrolo[3,4-d]thiazol-2-yl)-5′-methoxy-6-methyl-[4,4′-bipyridine]-3-carboxamide], the results for the IC50 with DLD1 WT cells (setting [3]) and in the test on DLD1 BRCA2 (−/−) cells (setting [3]) were at least 10 µM and 0.001 to 0.1 µM, respectively. Besides, in test [1] (POLθ ATPase, ADP-Glo), the pIC50 was 7.82 to 9.00.
Take `COc1cnc(Cl)cc1-c1cc(C)ncc1C(=O)Nc1nc2c(s1)CN(C(=O)c1nccc(Cl)c1OC)C2` [Example 399, 2′-chloro-N-(5-(4-chloro-3-methoxypicolinoyl)-5,6-dihydro-4H-pyrrolo[3,4-d]thiazol-2-yl)-5′-methoxy-6-methyl-[4,4′-bipyridine]-3-carboxamide]: the results for the IC50 in the test on DLD1 WT cells (setting [2]) and in the test on DLD1 BRCA2 (−/−) cells (setting [2]) were at least 10 µM and 0.001 to 0.1 µM, respectively. Moreover, in test [1], the pIC50 was 7.82 to 9.00.
As for `COc1cnc(Cl)cc1-c1cc(C)ncc1C(=O)Nc1nc2c(s1)CN(C(=O)c1ccc(OC)c3ccnn13)C2` [Example 402], the concentration for half-maximal inhibition (IC50) with DLD1 WT cells (setting [2]) is at least 10 µM; with DLD1 BRCA2 (−/−) cells (setting [2]), 0.001 to 0.1 µM. Moreover, the pIC50 in test [1] is 7.82 to 9.00.
On to `COc1cnc(Cl)cc1-c1cc(C)ncc1C(=O)Nc1nc2c(s1)CN(C(=O)C1CCC(C(F)F)CC1)C2` (stereo not drawn) [Example 406, (Cis and trans) 2′-chloro-N-(5-(4-(difluoromethyl)cyclohexane-1-carbonyl)-5,6-dihydro-4H-pyrrolo[3,4-d]thiazol-2-yl)-5′-methoxy-6-methyl-[4,4′-bipyridine]-3-carboxamide], for which the half-inhibitory concentration (IC50) in the test on DLD1 WT cells (setting [3]) is at least 10 µM; in the test on DLD1 BRCA2 (−/−) cells (setting [3]), 0.001 to 0.1 µM. In addition, the pIC50 in test [1] (POLθ ATPase, ADP-Glo) is 7.82 to 9.00.
For `COc1cnc(Cl)cc1-c1cc(C)ncc1C(=O)Nc1nc2c(s1)CN(C(=O)c1ccc(Cl)c(OC)n1)C2` [Example 421] the same measures were 2 to 5 µM, 0.001 to 0.1 µM and 7.82 to 9.00.
Take `COc1cnc(Cl)cc1-c1cc(C)ncc1C(=O)Nc1nc2c(s1)CN(C(=O)c1cccn3nccc13)C2` [Example 424]: the figures for the IC50 with DLD1 WT cells (setting [3]) and with DLD1 BRCA2 (−/−) cells (setting [3]) were at least 10 µM and 0.001 to 0.1 µM, respectively. The pIC50 in test [1] (POLθ ATPase, ADP-Glo) was 7.82 to 9.00.
`COc1cnc(Cl)cc1-c1cc(C)ncc1C(=O)Nc1nc2c(s1)CN(C(=O)c1c(Cl)ccnc1OC)C2` [Example 460]: the IC50 in the test with DLD1 WT cells (setting [3]) fell in the range of 5 to 10 µM; in the test with DLD1 BRCA2 (−/−) cells (setting [3]) it was 0.001 to 0.1 µM. For the same compound, the pIC50 in test [1] (POLθ ATPase, ADP-Glo) was 7.82 to 9.00.
For `COc1ccc(C#N)cc1-c1cc(C)ncc1C(=O)Nc1nc2c(s1)CN(C(=O)c1cccc(C(F)F)c1Cl)C2` [Example 487] the same measures were at least 10 µM, 0.001 to 0.1 µM and 7.82 to 9.00.
With `COc1cnc(C(F)F)c(C(=O)N2Cc3nc(NC(=O)c4cnc(C)cc4-c4cc(Cl)ncc4OC)sc3C2)n1` [Example 503, 2′-Chloro-N-(5-(3-(difluoromethyl)-6-methoxypyrazine-2-carbonyl)-5,6-dihydro-4H-pyrrolo[3,4-d]thiazol-2-yl)-5′-methoxy-6-methyl-[4,4′-bipyridine]-3-carboxamdie], the IC50 is at least 10 µM in the test on DLD1 WT cells (7-day CellTiter-Glo) and 0.001 to 0.1 µM in the test on DLD1 BRCA2 (−/−) cells (7-day CellTiter-Glo). Moreover, the pIC50 in test [1] (POLθ ATPase, ADP-Glo) is 7.82 to 9.00.
As for `COc1nc(OC)c(-c2cc(C)ncc2C(=O)Nc2nc3c(s2)CN(C(=O)c2ccc(C(F)(F)F)nc2OC)C3)cc1Cl` [Example 1036, 5-chloro-2,6-dimethoxy-N-(5-(2-methoxy-6-(trifluoromethyl)nicotinoyl)-5,6-dihydro-4H-pyrrolo[3,4-d]thiazol-2-yl)-6′-methyl-[3,4′-bipyridine]-3′-carboxamide], the IC50 was at least 10 µM in the test on DLD1 WT cells (setting [3]) and 0.001 to 0.1 µM with DLD1 BRCA2 (−/−) cells (setting [3]). The pIC50 in test [1] (POLθ ATPase, ADP-Glo) was 7.82 to 9.00.
Take `COc1cnc(Cl)cc1-c1cc(C)ncc1C(=O)Nc1nc2c(s1)C(C)N(C(=O)c1ccc(C(F)(F)F)nc1OC)C2` (stereo not drawn) [Example 1040, 2′-chloro-5′-methoxy-N-(S-(2-methoxy-6-(trifluoromethyl)nicotinoyl)-6-methyl-5,6-dihydro-4H-pyrrolo[3,4-d]thiazol-2-yl)-6-methyl-[4,4′-bipyridine]-3-carboxamide]: the IC50 in the test on DLD1 WT cells (setting [3]) is at least 10 µM; in the test on DLD1 BRCA2 (−/−) cells (setting [3]) it was 0.001 to 0.1 µM. The pIC50 in test [1] (POLθ ATPase, ADP-Glo) was 7.82 to 9.00.
`COc1cnc(C(F)F)nc1-c1cc(C)ncc1C(=O)Nc1nc2c(s1)CN(C(=O)c1ccc(C(F)(F)F)nc1OC)C2` [Example 1042, 4-(2-(difluoromethyl)-5-methoxypyrimidin-4-yl)-N-(5-(2-methoxy-6-(trifluoromethyl)nicotinoyl)-5,6-dihydro-4H-pyrrolo[3,4-d]thiazol-2-yl)-6-methylnicotinamide]: the IC50 in the test on DLD1 WT cells (setting [3]) was at least 10 µM; in the test on DLD1 BRCA2 (−/−) cells (setting [3]) it was 0.001 to 0.1 µM. Further, in test [1] (POLθ ATPase, ADP-Glo), the pIC50 was 7.82 to 9.00.
For “N-(5-(2-Chloro-5-(difluoromethyl)benzoyl)-5,6-dihydro-4H-pyrrolo[3,4-d]thiazol-2-yl)-4-(5-cyano-2-methoxyphenyl)-6-methylnicotinamide [Example 489]”, the IC50 in the test on DLD1 WT cells (7-day CellTiter-Glo) lay in the range of 5 to 10 µM; in the test on DLD1 BRCA2 (−/−) cells (7-day CellTiter-Glo), 0.001 to 0.1 µM. For the same compound, the pIC50 in test [1] (POLθ ATPase, ADP-Glo) is 7.82 to 9.00.
